Converted amounts (≈) assume the structure as drawn.
Columns and labels:
[1] = Aqueous solubility; format: physicochemical; settings: water (aqueous)
Procedure: Thus, there exists a need for alternative formulations of Compound A in order to increase the bioavailability of the drug upon oral administration. Provided herein are oral dosage forms addressing this need.
The above method results in a physically stable solid dispersion of Compound A having an aqueous solubility of about 2 μg/mL.

[2] = biological target: Phosphodiesterase 4 enzyme; test: Inhibition of PDE4; format: biochemical; settings: PDE4 purified from U937 human monocytic cells; 1 μM cAMP, 45 min at 30° C.
Procedure: Phosphodiesterase 4 enzyme was purified from U937 human monocytic cells by gel filtration chromatography, and phosphodiesterase reactions were carried out as previously described. See, e.g., Muller et al., Bioorg. Med. Chem. Lett., 1998, 8(19): 2669-2674. Briefly, reactions were carried out in 96-well deep-well plates in 50 mM Tris HCl pH 7.5, 5 mM MgCl2, 1 μM cyclic adenosine monophosphate (cAMP), plus 10 nM [^3H]-cAMP for 45 min at 30° C. The reactions were terminated by boiling, treated with 1 mg/ml snake venom, and separated using AG-1X8 ion exchange resin (BioRad). Reactions consumed less than 15% of available substrate.

[3] = test system: TNF-α; test: In vivo LPS-induced TNF-α production assay; settings: Rattus norvegicus, 1.5 h; p.o.; male CD rats, 0.05 mg/kg LPS, blood 90 minutes after LPS challenge; read-out: ED50, TNF-α levels in rat plasma
Procedure: Male CD rats procured from Charles River Laboratories at seven weeks of age are allowed to acclimate for one week prior to use. A lateral tail vein is cannulated percutaneously with a 22-gage over-the-needle catheter under brief isoflurane anesthesia. Rats are administered a PDE4 inhibitor of the invention either by intravenous injection via the tail vein catheter or oral gavage 15 to 180 min prior to injection of 0.05 mg/kg LPS (E. Coli 055:B5). Catheters are flushed with 2.5 mL/kg of normal injectable saline. Blood is collected via cardiac puncture 90 minutes after LPS challenge. Plasma is prepared using lithium heparin separation tubes and frozen at −80° C. until analyzed. TNF-α levels are determined using a rat specific TNF-α ELISA kit (Busywork). The ED50 values are calculated as the dose of the PDE4 inhibitor of the invention at which the TNF-α production is reduced to 50% of the control value.

solubility [1]: ~2 µg/mL (≈ 4.23 µM)
IC50 [2]: 105 nM
SMILES: CCOc1cc([C@@H](CS(C)(=O)=O)N2Cc3cccc(NC(=O)C4CC4)c3C2=O)ccc1OC [Compound A, Cyclopropanecarboxylic acid {2-[(1S)-1-(3-ethoxy-4-methoxy-phenyl)-2-methanesulfonyl-ethyl]-3-oxo-2,3-dihydro-1H-isoindol-4-yl}-amide]
ED50 [3]: ~7.8 µg/kg

Source: patent publication US9757355B2, “Oral dosage forms of cyclopropanecarboxylic acid {2-[(1S)-1-(3-ethoxy-4-methoxy-phenyl)-2-methanesulfonyl-ethyl]-3-oxo-2,3-dihydro-1H-isoindol-4-yl}-amide” (Celgene Corporation, priority 2011, dated 2017)
